Counter-ions that a name gives are not always drawn. Calls of active or inactive are those of the source. Rule as the data show it, for most assays here: actives have a measured Kd and inactives only a lower limit.
Tests used:
[1] = target: Serine/threonine-protein kinase N2 (Homo sapiens, UniProt Q16513)
[2] = target: T1, MAP/microtubule affinity-regulating kinase 4 (Homo sapiens, UniProt Q96L34)
T1 sequence (Q96L34 whole entry): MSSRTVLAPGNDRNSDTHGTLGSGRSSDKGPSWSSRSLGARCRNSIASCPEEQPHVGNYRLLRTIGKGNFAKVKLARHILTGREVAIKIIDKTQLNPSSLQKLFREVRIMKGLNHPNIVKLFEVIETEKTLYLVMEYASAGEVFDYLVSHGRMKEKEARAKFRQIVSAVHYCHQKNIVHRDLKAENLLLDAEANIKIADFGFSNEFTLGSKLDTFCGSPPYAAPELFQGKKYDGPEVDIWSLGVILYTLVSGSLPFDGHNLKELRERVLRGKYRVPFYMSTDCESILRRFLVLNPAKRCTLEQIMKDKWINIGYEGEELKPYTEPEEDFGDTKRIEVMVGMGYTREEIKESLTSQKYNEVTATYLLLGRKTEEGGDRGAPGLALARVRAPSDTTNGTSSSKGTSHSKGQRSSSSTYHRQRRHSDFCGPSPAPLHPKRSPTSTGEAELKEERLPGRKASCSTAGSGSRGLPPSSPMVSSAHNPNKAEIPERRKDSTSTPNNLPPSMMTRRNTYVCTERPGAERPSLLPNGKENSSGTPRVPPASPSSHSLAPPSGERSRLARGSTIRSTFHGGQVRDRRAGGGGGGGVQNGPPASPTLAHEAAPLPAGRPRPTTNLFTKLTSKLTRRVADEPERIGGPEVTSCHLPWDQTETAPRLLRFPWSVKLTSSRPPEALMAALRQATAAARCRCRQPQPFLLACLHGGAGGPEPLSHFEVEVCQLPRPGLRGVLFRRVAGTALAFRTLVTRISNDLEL

[3] = target: Dual specificity tyrosine-phosphorylation-regulated kinase 1A (Homo sapiens, UniProt Q13627)
[4] = target: T2, AarF domain-containing protein kinase 1 (Homo sapiens, UniProt Q86TW2)
T2 sequence (Q86TW2 whole entry): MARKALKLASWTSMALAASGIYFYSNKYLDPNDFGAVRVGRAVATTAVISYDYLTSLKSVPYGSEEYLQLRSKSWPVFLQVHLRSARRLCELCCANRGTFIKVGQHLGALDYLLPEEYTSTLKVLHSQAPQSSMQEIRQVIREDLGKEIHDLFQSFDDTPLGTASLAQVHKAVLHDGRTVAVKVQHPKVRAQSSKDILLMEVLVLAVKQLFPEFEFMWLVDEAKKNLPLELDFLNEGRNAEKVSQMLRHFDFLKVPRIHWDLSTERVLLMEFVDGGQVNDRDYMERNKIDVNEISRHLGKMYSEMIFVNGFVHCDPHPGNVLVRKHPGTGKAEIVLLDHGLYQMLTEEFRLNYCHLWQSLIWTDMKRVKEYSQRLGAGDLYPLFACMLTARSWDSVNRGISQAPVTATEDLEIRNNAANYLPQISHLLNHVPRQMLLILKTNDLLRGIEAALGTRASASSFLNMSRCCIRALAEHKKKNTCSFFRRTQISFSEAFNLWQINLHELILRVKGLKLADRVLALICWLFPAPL

[5] = target: Cyclin-dependent kinase 2 (Homo sapiens, UniProt P24941)
[6] = target: Mitogen-activated protein kinase kinase kinase 4 (Homo sapiens, UniProt Q9Y6R4)
[7] = target: Macrophage-stimulating protein receptor (Homo sapiens, UniProt Q04912)
[8] = target: Receptor-interacting serine/threonine-protein kinase 2 (Homo sapiens, UniProt O43353)
[9] = target: Dual specificity protein kinase CLK1 (Homo sapiens, UniProt P49759)
[10] = target: Epidermal growth factor receptor (Homo sapiens, UniProt P00533)
[11] = target: Protein kinase C alpha type (Homo sapiens, UniProt P17252)
[12] = target: T3, Serine/threonine-protein kinase STK11 (Homo sapiens, UniProt Q15831)
T3 sequence (Q15831 whole entry): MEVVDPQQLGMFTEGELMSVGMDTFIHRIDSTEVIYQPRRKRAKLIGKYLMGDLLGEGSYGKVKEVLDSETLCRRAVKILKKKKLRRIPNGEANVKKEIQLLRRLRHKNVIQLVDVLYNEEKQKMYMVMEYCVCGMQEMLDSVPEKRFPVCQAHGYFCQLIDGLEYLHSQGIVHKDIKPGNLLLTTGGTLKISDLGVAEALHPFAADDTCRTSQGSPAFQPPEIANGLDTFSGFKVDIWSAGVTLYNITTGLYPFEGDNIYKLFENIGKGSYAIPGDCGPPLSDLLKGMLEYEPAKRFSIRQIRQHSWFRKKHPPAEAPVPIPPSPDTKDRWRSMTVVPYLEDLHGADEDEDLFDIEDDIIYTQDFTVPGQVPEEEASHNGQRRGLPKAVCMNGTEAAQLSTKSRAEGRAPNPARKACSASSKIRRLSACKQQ

Activin receptor type-2B = Activin receptor type-2B (Homo sapiens, UniProt Q13705)
[13] = target: Dual specificity mitogen-activated protein kinase kinase 1 (Homo sapiens, UniProt Q02750)
Also: in the data inactive means no Kd found up to 30 µM.

Receptor-interacting serine/threonine-protein kinase 2, sequence (O43353 whole entry): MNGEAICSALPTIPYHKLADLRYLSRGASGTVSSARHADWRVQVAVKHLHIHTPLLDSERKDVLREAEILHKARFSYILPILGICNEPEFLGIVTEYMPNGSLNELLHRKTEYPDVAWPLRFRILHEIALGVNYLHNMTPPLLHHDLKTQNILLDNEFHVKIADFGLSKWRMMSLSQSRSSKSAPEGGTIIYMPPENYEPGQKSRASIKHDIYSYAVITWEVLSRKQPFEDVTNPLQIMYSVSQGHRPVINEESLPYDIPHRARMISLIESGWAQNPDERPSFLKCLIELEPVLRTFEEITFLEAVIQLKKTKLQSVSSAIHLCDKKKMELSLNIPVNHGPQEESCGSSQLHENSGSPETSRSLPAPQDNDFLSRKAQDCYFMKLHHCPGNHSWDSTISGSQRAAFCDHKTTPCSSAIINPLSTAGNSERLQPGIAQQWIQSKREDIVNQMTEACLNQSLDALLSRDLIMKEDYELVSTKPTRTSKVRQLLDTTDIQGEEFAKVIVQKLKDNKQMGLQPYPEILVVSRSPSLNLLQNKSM
Dual specificity mitogen-activated protein kinase kinase 1, sequence (Q02750 whole entry): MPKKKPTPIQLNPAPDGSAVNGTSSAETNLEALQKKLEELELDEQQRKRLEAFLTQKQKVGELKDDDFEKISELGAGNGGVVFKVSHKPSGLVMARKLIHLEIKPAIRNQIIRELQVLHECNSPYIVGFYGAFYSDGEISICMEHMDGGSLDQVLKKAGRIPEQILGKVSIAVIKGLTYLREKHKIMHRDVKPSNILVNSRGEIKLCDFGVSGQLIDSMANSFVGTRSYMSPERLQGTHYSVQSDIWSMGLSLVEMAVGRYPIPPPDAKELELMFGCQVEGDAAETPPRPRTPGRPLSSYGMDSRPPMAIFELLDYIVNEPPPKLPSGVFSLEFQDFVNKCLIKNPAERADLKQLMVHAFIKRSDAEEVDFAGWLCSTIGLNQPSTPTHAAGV
Serine/threonine-protein kinase N2, sequence (Q16513 whole entry): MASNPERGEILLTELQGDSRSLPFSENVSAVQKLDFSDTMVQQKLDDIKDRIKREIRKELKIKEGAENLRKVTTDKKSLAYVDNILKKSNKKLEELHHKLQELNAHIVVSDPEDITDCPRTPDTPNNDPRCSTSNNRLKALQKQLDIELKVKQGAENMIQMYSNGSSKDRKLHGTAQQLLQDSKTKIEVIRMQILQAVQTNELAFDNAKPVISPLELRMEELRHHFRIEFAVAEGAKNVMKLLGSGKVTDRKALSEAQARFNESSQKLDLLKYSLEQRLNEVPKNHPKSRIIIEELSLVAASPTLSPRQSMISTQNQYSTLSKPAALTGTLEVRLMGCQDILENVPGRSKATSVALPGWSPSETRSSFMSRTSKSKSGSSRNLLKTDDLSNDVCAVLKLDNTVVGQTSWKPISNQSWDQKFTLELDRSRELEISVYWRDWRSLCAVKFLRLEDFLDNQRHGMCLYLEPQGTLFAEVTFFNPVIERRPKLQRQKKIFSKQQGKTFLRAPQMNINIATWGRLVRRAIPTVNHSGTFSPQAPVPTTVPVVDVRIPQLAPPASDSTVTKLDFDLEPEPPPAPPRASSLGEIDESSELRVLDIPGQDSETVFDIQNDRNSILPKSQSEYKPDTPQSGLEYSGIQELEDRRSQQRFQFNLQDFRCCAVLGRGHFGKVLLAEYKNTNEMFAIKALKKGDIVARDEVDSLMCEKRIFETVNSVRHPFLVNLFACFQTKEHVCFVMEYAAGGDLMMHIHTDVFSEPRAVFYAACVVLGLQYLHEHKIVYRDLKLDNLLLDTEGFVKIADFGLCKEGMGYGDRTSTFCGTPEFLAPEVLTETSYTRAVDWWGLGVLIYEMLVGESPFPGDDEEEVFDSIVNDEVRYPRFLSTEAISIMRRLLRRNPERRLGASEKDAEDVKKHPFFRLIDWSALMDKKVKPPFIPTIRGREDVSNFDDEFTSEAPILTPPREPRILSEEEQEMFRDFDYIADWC
Mitogen-activated protein kinase kinase kinase 4, sequence (Q9Y6R4 whole entry): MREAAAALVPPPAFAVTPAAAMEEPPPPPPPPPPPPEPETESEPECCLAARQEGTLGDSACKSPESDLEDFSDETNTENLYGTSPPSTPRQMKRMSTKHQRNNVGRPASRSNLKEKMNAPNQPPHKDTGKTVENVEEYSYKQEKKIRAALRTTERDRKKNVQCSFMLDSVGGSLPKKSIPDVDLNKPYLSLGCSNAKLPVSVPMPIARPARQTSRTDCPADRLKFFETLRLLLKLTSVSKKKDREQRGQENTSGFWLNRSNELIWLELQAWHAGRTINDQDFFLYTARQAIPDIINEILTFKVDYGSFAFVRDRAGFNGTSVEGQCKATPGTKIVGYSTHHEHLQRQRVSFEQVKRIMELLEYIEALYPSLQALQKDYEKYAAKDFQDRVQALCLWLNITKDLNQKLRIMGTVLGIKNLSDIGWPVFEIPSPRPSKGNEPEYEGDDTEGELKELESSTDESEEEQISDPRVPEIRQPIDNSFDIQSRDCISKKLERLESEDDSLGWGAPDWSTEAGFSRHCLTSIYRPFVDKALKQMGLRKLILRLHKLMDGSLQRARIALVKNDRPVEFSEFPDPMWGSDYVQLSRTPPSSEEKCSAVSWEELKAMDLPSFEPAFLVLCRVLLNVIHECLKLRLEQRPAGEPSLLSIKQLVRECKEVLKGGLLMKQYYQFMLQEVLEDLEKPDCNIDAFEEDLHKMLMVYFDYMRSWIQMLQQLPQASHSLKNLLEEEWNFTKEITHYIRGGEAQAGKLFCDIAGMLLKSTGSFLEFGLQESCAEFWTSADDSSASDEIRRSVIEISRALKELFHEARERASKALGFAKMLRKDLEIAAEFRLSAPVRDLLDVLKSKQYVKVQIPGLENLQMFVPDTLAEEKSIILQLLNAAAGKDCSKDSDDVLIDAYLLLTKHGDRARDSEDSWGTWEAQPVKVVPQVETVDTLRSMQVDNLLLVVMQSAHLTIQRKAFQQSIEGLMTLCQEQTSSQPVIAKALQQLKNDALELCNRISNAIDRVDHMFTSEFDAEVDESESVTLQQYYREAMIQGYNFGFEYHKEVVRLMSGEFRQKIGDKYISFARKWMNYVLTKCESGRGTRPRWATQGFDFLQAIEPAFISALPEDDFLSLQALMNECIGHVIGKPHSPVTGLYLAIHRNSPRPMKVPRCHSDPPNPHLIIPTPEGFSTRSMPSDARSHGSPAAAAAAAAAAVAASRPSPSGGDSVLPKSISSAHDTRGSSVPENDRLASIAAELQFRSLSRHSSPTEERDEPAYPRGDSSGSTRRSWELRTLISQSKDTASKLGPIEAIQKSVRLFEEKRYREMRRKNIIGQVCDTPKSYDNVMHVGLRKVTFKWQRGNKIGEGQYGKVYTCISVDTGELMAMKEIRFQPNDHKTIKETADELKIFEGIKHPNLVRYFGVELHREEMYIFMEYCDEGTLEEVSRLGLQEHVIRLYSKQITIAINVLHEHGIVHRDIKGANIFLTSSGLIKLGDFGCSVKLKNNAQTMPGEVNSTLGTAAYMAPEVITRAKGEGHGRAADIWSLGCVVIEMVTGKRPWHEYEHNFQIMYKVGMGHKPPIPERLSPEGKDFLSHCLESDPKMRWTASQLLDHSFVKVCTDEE
Activin receptor type-2B, sequence (Q13705 whole entry): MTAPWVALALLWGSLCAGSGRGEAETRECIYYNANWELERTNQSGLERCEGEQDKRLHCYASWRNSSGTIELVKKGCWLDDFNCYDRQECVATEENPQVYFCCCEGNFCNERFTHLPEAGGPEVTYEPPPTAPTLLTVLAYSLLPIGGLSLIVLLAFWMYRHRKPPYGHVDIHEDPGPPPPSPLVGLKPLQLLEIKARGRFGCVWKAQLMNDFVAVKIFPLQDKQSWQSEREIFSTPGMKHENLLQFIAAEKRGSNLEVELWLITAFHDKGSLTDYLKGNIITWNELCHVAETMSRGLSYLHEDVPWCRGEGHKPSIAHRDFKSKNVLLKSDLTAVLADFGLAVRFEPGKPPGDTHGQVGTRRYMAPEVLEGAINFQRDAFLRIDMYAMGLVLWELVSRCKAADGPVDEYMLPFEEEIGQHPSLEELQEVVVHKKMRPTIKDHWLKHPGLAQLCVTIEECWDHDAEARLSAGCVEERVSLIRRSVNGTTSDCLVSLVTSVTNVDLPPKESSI

SMILES | Kd [1] | Kd [2] | Kd [3] | Kd [4] | Kd [5] | Kd [6] | Kd [7] | Kd [8] | Kd [9] | Kd [10] | Kd [11] | Kd [12] | Kd (Activin receptor type-2B) | Kd [13]
CCNC(=O)C#Cc1ccc2c(c1)NC(=O)/C2=C(\Nc1ccc(CN(C)C)cc1)c1ccccc1 | > 30 µM (inactive) | > 30 µM (inactive) | > 30 µM (inactive) | > 30 µM (inactive) | > 30 µM (inactive) | > 30 µM (inactive) | > 30 µM (inactive) | > 30 µM (inactive) | > 30 µM (inactive) | > 30 µM (inactive) | > 30 µM (inactive) | > 30 µM (inactive) | > 30 µM (inactive) | 
COCc1c(-c2ccc(NC(=O)Nc3cc(C(F)(F)F)ccc3F)c(F)c2)c2c(N)ncnn2c1CN1CCOCC1 | > 30 µM (inactive) | > 30 µM (inactive) | > 30 µM (inactive) | > 30 µM (inactive) | > 30 µM (inactive) | > 30 µM (inactive) | > 30 µM (inactive) | > 30 µM (inactive) | > 30 µM (inactive) | > 30 µM (inactive) | > 30 µM (inactive) | > 30 µM (inactive) | > 30 µM (inactive) | > 30 µM (inactive)
Nc1ncnc2c1c(-c1cccc(OCc3ccccc3)c1)cn2[C@H]1C[C@@H](CN2CCC2)C1 [AEW-541] | > 30 µM (inactive) | > 30 µM (inactive) | > 30 µM (inactive) | > 30 µM (inactive) | > 30 µM (inactive) | > 30 µM (inactive) | > 30 µM (inactive) | 0.355 µM (active) |  | > 30 µM (inactive) | > 30 µM (inactive) | > 30 µM (inactive) | > 30 µM (inactive) | 3.33 µM (active)
Cc1csc(-c2nnc(Nc3ccc(Oc4ncccc4-c4ccnc(N)n4)cc3)c3ccccc23)c1 [AMG-900] | > 30 µM (inactive) | > 30 µM (inactive) | > 30 µM (inactive) | > 30 µM (inactive) | > 30 µM (inactive) | > 30 µM (inactive) | > 30 µM (inactive) | > 30 µM (inactive) | 2.46 µM (active) | > 30 µM (inactive) | > 30 µM (inactive) |  | > 30 µM (inactive) | 3.31 µM (active)
Cc1cc(C(=O)NOCCO)c(Nc2ccc(I)cc2F)n(C)c1=O [AZD-8330] | > 30 µM (inactive) | > 30 µM (inactive) | > 30 µM (inactive) | > 30 µM (inactive) | > 30 µM (inactive) | > 30 µM (inactive) | > 30 µM (inactive) | > 30 µM (inactive) | > 30 µM (inactive) | > 30 µM (inactive) | > 30 µM (inactive) | > 30 µM (inactive) | > 30 µM (inactive) | 
CCS(=O)(=O)N1CCN(c2ccc(Nc3ncc(C(N)=O)c(NC4CC4)n3)cc2)CC1 [Cerdulatinib Hydrochloride] | > 30 µM (inactive) | > 30 µM (inactive) | > 30 µM (inactive) | > 30 µM (inactive) |  | > 30 µM (inactive) | > 30 µM (inactive) | > 30 µM (inactive) | > 30 µM (inactive) | > 30 µM (inactive) | > 30 µM (inactive) | > 30 µM (inactive) | > 30 µM (inactive) | > 30 µM (inactive)
Cc1nc2cc(-n3ncc(C(=O)c4cc5ccccc5[nH]4)c3N)ccc2[nH]1 [FGFR INHIBITOR DEBIO 1347] | > 30 µM (inactive) | > 30 µM (inactive) | > 30 µM (inactive) | > 30 µM (inactive) |  | > 30 µM (inactive) | > 30 µM (inactive) | > 30 µM (inactive) |  | > 30 µM (inactive) | > 30 µM (inactive) | > 30 µM (inactive) | > 30 µM (inactive) | > 30 µM (inactive)
O=C(Nc1nc2cccc(-c3ccc(CN4CCS(=O)(=O)CC4)cc3)n2n1)C1CC1 [FILGOTINIB] | > 30 µM (inactive) | > 30 µM (inactive) | > 30 µM (inactive) | 2.03 µM (active) | > 30 µM (inactive) | > 30 µM (inactive) | > 30 µM (inactive) | > 30 µM (inactive) |  | > 30 µM (inactive) | > 30 µM (inactive) | > 30 µM (inactive) | > 30 µM (inactive) | > 30 µM (inactive)
CNC(=O)c1cccc2cc(Oc3ccnc4cc(OCC5(N)CC5)c(OC)cc34)ccc12 [LUCITANIB] | > 30 µM (inactive) | > 30 µM (inactive) | > 30 µM (inactive) | > 30 µM (inactive) |  | > 30 µM (inactive) | > 30 µM (inactive) | 0.199 µM (active) | > 30 µM (inactive) | > 30 µM (inactive) | > 30 µM (inactive) | > 30 µM (inactive) | > 30 µM (inactive) | > 30 µM (inactive)
Cc1nc(Nc2n[nH]c3c2CN(C(=O)N[C@H](CN(C)C)c2ccccc2)C3(C)C)c2sccc2n1 [PF-03758309] | > 30 µM (inactive) | 0.029 µM (active) | > 30 µM (inactive) | > 30 µM (inactive) |  | > 30 µM (inactive) | > 30 µM (inactive) | > 30 µM (inactive) | 0.09 µM (active) | > 30 µM (inactive) | 0.873 µM (active) | 0.434 µM (active) | > 30 µM (inactive) | > 30 µM (inactive)
CCS(=O)(=O)c1cccc(-c2cc(C(=O)NC3CCN(C)CC3)c(C)c3[nH]c4ncc(C)cc4c23)c1 [TAK-901] | > 30 µM (inactive) | 1.03 µM (active) | > 30 µM (inactive) | > 30 µM (inactive) |  | > 30 µM (inactive) | > 30 µM (inactive) | > 30 µM (inactive) | > 30 µM (inactive) | 1.47 µM (active) | 1.61 µM (active) | > 30 µM (inactive) | > 30 µM (inactive) | > 30 µM (inactive)
Cc1cc(Nc2ncnc3ccc(NC4=NC(C)(C)CO4)cc23)ccc1Oc1ccn2ncnc2c1 [TUCATINIB] | > 30 µM (inactive) | > 30 µM (inactive) | > 30 µM (inactive) | > 30 µM (inactive) | > 30 µM (inactive) | > 30 µM (inactive) | > 30 µM (inactive) | > 30 µM (inactive) |  | 2.53 µM (active) | > 30 µM (inactive) | > 30 µM (inactive) | > 30 µM (inactive) | > 30 µM (inactive)
C[C@@H](N)c1ccc(C(=O)Nc2ccnc3[nH]ccc23)cc1 [Y-39983] | 0.028 µM (active) | > 30 µM (inactive) | > 30 µM (inactive) | > 30 µM (inactive) |  | > 30 µM (inactive) | > 30 µM (inactive) | > 30 µM (inactive) | 0.018 µM (active) | > 30 µM (inactive) | 3.28 µM (active) | > 30 µM (inactive) | > 30 µM (inactive) | > 30 µM (inactive)
